# Legend:
# Test in all cases: ≥ marks a high value that may be exact or a test limit, other limits are often not marked, values filed in µg/mL are converted to µM
# Bacillus cereus = system: Bacillus cereus
# Staphylococcus aureus = system: Staphylococcus aureus
# Escherichia coli = system: Escherichia coli
# Bacillus subtilis = system: Bacillus subtilis
Compound,MIC (Bacillus cereus) [µM],MIC (Staphylococcus aureus) [µM],MIC (Escherichia coli) [µM],MIC (Bacillus subtilis) [µM]
CC(C)C[C@H](NC(=O)[C@@H](N)Cc1ccccc1)C(=O)NCC(=O)N[C@@H](CCCCN)C(=O)N[C@H](C(=O)N[C@@H](Cc1ccccc1)C(=O)N[C@@H](CCCCN)C(=O)NCC(=O)N[C@@H](C)C(=O)N[C@@H](CO)C(=O)N[C@@H](CCCCN)C(=O)N[C@H](C(=O)N[C@H](C(=O)N1CCC[C@H]1C(=O)N[C@@H](C)C(=O)N[C@H](C(=O)N[C@@H](Cc1ccccc1)C(=O)NCC(=O)N[C@@H](CCCCN)C(=O)N[C@H](C(=O)O)C(C)C)C(C)C)C(C)C)C(C)C)C(C)C [FLGKVFKGASKVVPAVFGKV],≥ 123,> 123,> 123,
CSCC[C@H](NC(=O)[C@H](CO)NC(=O)[C@H](Cc1ccccc1)NC(=O)[C@@H](NC(=O)[C@H](C)NC(=O)[C@@H]1CCCN1C(=O)[C@H](Cc1ccccc1)NC(=O)[C@@H](NC(=O)[C@H](CCCCN)NC(=O)[C@H](CO)NC(=O)[C@H](C)NC(=O)[C@H](CC(C)C)NC(=O)[C@H](CCCCN)NC(=O)CNC(=O)[C@@H](NC(=O)[C@H](C)NC(=O)[C@@H](N)CO)C(C)C)C(C)C)C(C)C)C(=O)N[C@H](C(=O)N[C@H](C(=O)N[C@@H](CCCCN)C(=O)O)[C@@H](C)O)C(C)C [SAVGKLASKVFPAVFSMVTK],≥ 124,,> 124,
CC[C@H](C)[C@H](NC(=O)[C@@H]1CCCN1C(=O)[C@H](CO)NC(=O)[C@@H](NC(=O)[C@@H](NC(=O)[C@@H](NC(=O)[C@H](C)NC(=O)[C@H](CC(C)C)NC(=O)[C@H](CCCCN)NC(=O)[C@H](CO)NC(=O)[C@H](C)NC(=O)[C@@H](NC(=O)[C@H](CCCCN)NC(=O)[C@@H](NC(=O)[C@@H](NC(=O)[C@@H](N)CO)[C@@H](C)O)C(C)C)C(C)C)C(C)C)C(C)C)C(C)C)C(=O)N[C@@H](CO)C(=O)N[C@@H](CCCCN)C(=O)NCC(=O)N[C@@H](CO)C(=O)O [STVKVASKLAVVVSPISKGS],≥ 131,,> 131,

# The next lines start with the values.
MIC (Bacillus cereus) [µM],MIC (Staphylococcus aureus) [µM],MIC (Escherichia coli) [µM],MIC (Bacillus subtilis) [µM],Compound
≥ 58.2,> 58.2,14.6,,CC(C)C[C@H](NC(=O)[C@@H](N)Cc1ccccc1)C(=O)NCC(=O)N[C@@H](CCCCN)C(=O)N[C@H](C(=O)N[C@@H](Cc1ccccc1)C(=O)N[C@@H](CCCCN)C(=O)N[C@@H](CCCCN)C(=O)N[C@@H](C)C(=O)N[C@@H](CO)C(=O)N[C@@H](CCCCN)C(=O)N[C@H](C(=O)N[C@@H](Cc1ccccc1)C(=O)N1CCC[C@H]1C(=O)N[C@@H](C)C(=O)N[C@H](C(=O)N[C@@H](Cc1ccccc1)C(=O)NCC(=O)N[C@@H](CCCCN)C(=O)N[C@H](C(=O)O)C(C)C)C(C)C)C(C)C)C(C)C [FLGKVFKKASKVFPAVFGKV]
,,12.5,22.5,CC[C@H](C)[C@H](N)C(=O)N[C@@H](CC(N)=O)C(=O)N[C@@H](Cc1c[nH]c2ccccc12)C(=O)N[C@@H](CCCCN)C(=O)N[C@@H](CCCCN)C(=O)N[C@H](C(=O)N[C@@H](Cc1ccccc1)C(=O)N[C@@H](CCC(=O)O)C(=O)N[C@@H](CCCCN)C(=O)N[C@H](C(=O)N[C@@H](CO)C(=O)N[C@@H](CC(N)=O)C(=O)N[C@@H](CC(C)C)C(=O)N[C@H](C(N)=O)C(C)C)C(C)C)[C@@H](C)CC [INWKKIFEKVSNLV]
≥ 120,,> 120,,CC[C@H](C)[C@H](NC(=O)[C@@H]1CCCN1C(=O)[C@@H](NC(=O)[C@H](CO)NC(=O)[C@H](CO)NC(=O)[C@@H](N)CO)[C@@H](C)CC)C(=O)N[C@@H](CCCCN)C(=O)N[C@@H](CCSC)C(=O)N[C@H](C(=O)N[C@@H](CC(C)C)C(=O)N[C@H](C(=O)N[C@@H](CCCN=C(N)N)C(=O)N[C@@H](C)C(=O)N[C@@H](CC(C)C)C(=O)N[C@H](C(=O)N[C@@H](Cc1ccccc1)C(=O)N[C@H](C(=O)N[C@@H](CCCCN)C(=O)N[C@@H](CO)C(=O)NCC(=O)O)C(C)C)C(C)C)C(C)C)C(C)C [SSSIPIKMVLVRALVFVKSG]
